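Interpolation was linear, between the two tested concentrations surrounding the appropriate level; five concentrations were tested over 48 hours in 96-well plates. Abbreviation: GI50, concentration required for 50% inhibition of growth. TGI: total growth inhibition.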
How the values were obtained:
Assay in all cases: NCI anticancer screen, dose series, 48 h
HCC-2998 colon = tested on: HCC-2998 colon
SF-268 CNS = tested on: SF-268 CNS
HT29 colon = tested on: HT29 colon
OVCAR-3 ovarian = tested on: OVCAR-3 ovarian
HCT-15 colon = tested on: HCT-15 colon
SNB-19 CNS = tested on: SNB-19 CNS
RXF 393 renal = tested on: RXF 393 renal
CCRF-CEM leukemia = tested on: CCRF-CEM leukemia
HOP-92 NSCLC = tested on: HOP-92 NSCLC
TK-10 renal = tested on: TK-10 renal
MDA-MB-435 = tested on: MDA-MB-435
UACC-62 melanoma = tested on: UACC-62 melanoma
HS 578T breast = tested on: HS 578T breast
SK-MEL-28 melanoma = tested on: SK-MEL-28 melanoma
SF-295 CNS = tested on: SF-295 CNS
SK-MEL-5 melanoma = tested on: SK-MEL-5 melanoma
SK-OV-3 ovarian = tested on: SK-OV-3 ovarian
KM12 colon = tested on: KM12 colon
RPMI-8226 leukemia = tested on: RPMI-8226 leukemia
HOP-62 NSCLC = tested on: HOP-62 NSCLC
MDA-MB-468 breast = tested on: MDA-MB-468 breast
NCI-H522 lung = tested on: NCI-H522 lung
PC-3 prostate = tested on: PC-3 prostate
T-47D breast = tested on: T-47D breast
SW-620 colon = tested on: SW-620 colon
SNB-75 CNS = tested on: SNB-75 CNS
HCT-116 colon = tested on: HCT-116 colon
OVCAR-4 ovarian = tested on: OVCAR-4 ovarian
M14 melanoma = tested on: M14 melanoma
EKVX NSCLC = tested on: EKVX NSCLC
SF-539 CNS = tested on: SF-539 CNS
NCI-H23 lung = tested on: NCI-H23 lung
K-562 leukemia = tested on: K-562 leukemia
OVCAR-5 ovarian = tested on: OVCAR-5 ovarian
OVCAR-8 ovarian = tested on: OVCAR-8 ovarian
SN12C renal = tested on: SN12C renal
MDA-MB-231 breast = tested on: MDA-MB-231 breast
DU-145 prostate = tested on: DU-145 prostate
MCF7 breast = tested on: MCF7 breast
HL-60(TB) leukemia = tested on: HL-60(TB) leukemia
MALME-3M melanoma = tested on: MALME-3M melanoma
SK-MEL-2 melanoma = tested on: SK-MEL-2 melanoma

## CN(CCSSCCN1CCOCC1)C(=O)Oc1cc2c(c3ccccc13)[C@H](CCl)CN2C(=O)c1cc2cc(OCCCN3CCC3)ccc2[nH]1
HCC-2998 colon
  GI50: 0.027 µM
  TGI: 0.102 µM
SF-268 CNS
  GI50: 0.0244 µM
  TGI: 0.849 µM
HT29 colon
  GI50: 0.0699 µM
  TGI: 25 µM
OVCAR-3 ovarian
  GI50: 0.236 µM
  TGI: 2.38 µM
HCT-15 colon
  GI50: 0.0574 µM
  TGI: 0.642 µM
SNB-19 CNS
  GI50: 0.00665 µM
  TGI: 0.127 µM
RXF 393 renal
  GI50: 0.0406 µM
  TGI: 0.0829 µM
CCRF-CEM leukemia
  GI50: 0.102 µM
  TGI: 9.89 µM
HOP-92 NSCLC
  GI50: 0.382 µM
  TGI: 1.44 µM
TK-10 renal
  GI50: 0.971 µM
  TGI: 5.81 µM
MDA-MB-435
  GI50: 0.0367 µM
  TGI: 0.104 µM
UACC-62 melanoma
  GI50: 0.00625 µM
  TGI: 0.0321 µM
HS 578T breast
  GI50: 0.178 µM
  TGI: 1.1 µM
SK-MEL-28 melanoma
  GI50: 0.0291 µM
  TGI: 0.0667 µM
SF-295 CNS
  GI50: 0.00304 µM
  TGI: 0.0108 µM
SK-MEL-5 melanoma
  GI50: 0.00632 µM
  TGI: 0.0321 µM
SK-OV-3 ovarian
  GI50: 0.00867 µM
  TGI: 0.101 µM
KM12 colon
  GI50: 0.0306 µM
  TGI: 5.43 µM
RPMI-8226 leukemia
  GI50: 0.473 µM
  TGI: 5.18 µM
HOP-62 NSCLC
  GI50: 0.00251 µM
  TGI: 0.0288 µM
MDA-MB-468 breast
  GI50: 0.0402 µM
  TGI: 0.173 µM
NCI-H522 lung
  GI50: 0.273 µM
  TGI: 1.02 µM
PC-3 prostate
  GI50: 0.0396 µM
  TGI: 1.77 µM
T-47D breast
  GI50: 0.287 µM
  TGI: 1.7 µM
SW-620 colon
  GI50: 0.0464 µM
  TGI: 2.7 µM
SNB-75 CNS
  GI50: 0.038 µM
  TGI: 0.173 µM
HCT-116 colon
  GI50: 0.0452 µM
  TGI: 5.04 µM
OVCAR-4 ovarian
  GI50: 0.615 µM
  TGI: 2.28 µM
M14 melanoma
  GI50: 0.0101 µM
  TGI: 0.0426 µM
EKVX NSCLC
  GI50: 0.042 µM
  TGI: 0.134 µM
SF-539 CNS
  GI50: 0.0513 µM
  TGI: 0.123 µM
NCI-H23 lung
  GI50: 0.0101 µM
  TGI: 0.0433 µM
K-562 leukemia
  GI50: 0.0751 µM
  TGI: 2.67 µM
OVCAR-5 ovarian
  GI50: 0.0675 µM
  TGI: 0.266 µM
OVCAR-8 ovarian
  GI50: 0.0247 µM
  TGI: 0.136 µM
SN12C renal
  GI50: 0.0649 µM
  TGI: 1.44 µM
MDA-MB-231 breast
  GI50: 0.0711 µM
  TGI: 0.178 µM
DU-145 prostate
  GI50: 0.0119 µM
  TGI: 2.98 µM
MCF7 breast
  GI50: 0.00752 µM
  TGI: 2.64 µM
HL-60(TB) leukemia
  GI50: 0.131 µM
  TGI: 1.4 µM
MALME-3M melanoma
  GI50: 0.0481 µM
  TGI: 0.123 µM
SK-MEL-2 melanoma
  GI50: 0.0494 µM
  TGI: 0.0959 µM
